Measured values as given in patent publication US20070072831A1, “Integrase inhibitor compounds” (GILEAD SCIENCES, INC., priority 2005, published 2007).
pEC50, pIC50: −log10 of the molar value.

Assays:
HIV integrase = HIV integrase (Human immunodeficiency virus type 1 group M subtype B, UniProt P04585); assay: biochemical
Description: Representative compounds of the invention were tested for biological activity by methods including anti-HIV assay, measuring inhibition of HIV-integrase strand transfer catalysis, and cytotoxicity.
HIV Integrase Assay (IC50 Determination)
The HIV Integrase assay is carried out in Reacti-Bind High Binding Capacity Streptavidin coated plates (Pierce # 15502) in 100 μl reactions. The wells of the plate are rinsed once with PBS. Each well is then coated at room temperature for 1 h with 100 μl of 0.14 μM Donor DNA with the following sequence:
After coating, the plate was washed twice with PBS. 3′processing of the Donor DNA is started by adding 80 μl of Integrase/buffer mixture (25 mM HEPES, pH 7.3, 12.5 mM DTT, 93.75 mM NaCl, 12.5 mM MgCl2, 1.25% Glycerol, 0.3125 uM integrase) to each well. 3′processing is allowed to proceed for 30 min at 37° C., after which, 10 μl of test compound and 10 μl of 2.5 uM DIG-labeled Target DNA with the following sequence:
are added to each well to allow strand transfer to proceed for 30 min at 37° C. The plate is then washed three times with 2×SSC for 5 min and rinsed once with PBS. For detection of integrated product, 100 μl of a 1/2000 dilution of HRP-conjugated anti-DIG antibody (Pierce #31468) are added to each well and incubated for 1 hour. The plate was then washed three times for 5 min each, with 0.05% Tween-20 in PBS. For signal development and amplification, 100 μl of SuperSignal ELISA Femto Substrate (Pierce #37075) are added to each well. Chemiluminescence (in relative light units) is read immediately at 425 nm in the SPECTRAmax GEMINI Microplate Spectrophotometer using the end point mode at 5 sec per well.
For IC50 determinations, eight concentrations of test compounds in a 1/2.2 dilution series are used.

HIV-IIIb = assay: Antiviral assay in MT-4 cells infected with HIV-IIIb; assay type: cell-based; conditions: MT4, 120 h; MT-4 cells, HIV-IIIb, 5 days; read-out: EC50 Range MT-4
Description: See: Wolfe, etal J. Virol.
Antiviral Assays in MT2 and MT4 Cells
For the antiviral assay utilizing MT-2 cells, 50 μl of 2× test concentration of 5-fold serially diluted compound in culture medium with 10% FBS was added to each well of a 96-well plate (9 concentrations) in triplicate. MT-2 cells were infected with HIV-IIIb at a multiplicity of infection (m.o.i) of 0.01 for 3 hours. Fifty microliters of infected cell suspension in culture medium with 10% FBS (˜1.5×10^4 cells) was then added to each well containing 50 μl of diluted compound. The plates were then incubated at 37° C. for 5 days. For the antiviral assay utilizing MT-4 cells, 20 μl of 2× test concentration of 5-fold serially diluted compound in culture medium with 10% FBS was added to each well of a 384-well plate (7 concentrations) in triplicate. MT-4 cells were next mixed with HIV-IIIb at an m.o.i. of 0.1 and 20 μl of virus/cell mixture (˜2000 cells) was immediately added to each well containing 20 μl of diluted compound. The plates were then incubated at 37° C. for 5 days. After 5 days of incubation, 100 μl of CellTiter-Glo™ Reagent (catalog # G7571, Promega Biosciences, Inc., Madison, Wis.) was added to each well containing MT-2 cells and 40 μl to each well containing MT-4 cells. Cell lysis was carried out by incubating at room temperature for 10 min and then chemiluminescence was read.

CN(c1c2c(c(O)c3ncccc13)C(=O)N(Cc1ccc(Cl)cc1F)C2)S(C)(=O)=O [Compound 189, N-(7-(4-chloro-2-fluorobenzyl)-9-hydroxy-8-oxo-7,8-dihydro-6H-pyrrolo[3,4-g]quinolin-5-yl)-N-methylmethanesulfonamide]
pIC50 (HIV integrase): 6.00 to 7.22 | pEC50 (HIV-IIIb): > 7.22

CN(c1c2c(c(O)c3ncccc13)C(=O)N(Cc1ccc(F)cc1)C2)S(=O)(=O)CCN1CCNCC1 [Compound 164, N-(7-(4-fluorobenzyl)-9-hydroxy-8-oxo-7,8-dihydro-6H-pyrrolo[3,4-g]quinolin-5-yl)-N-methyl-2-(piperazin-1-yl)ethanesulfonamide]
pIC50 (HIV integrase): 6.00 to 7.22 | pEC50 (HIV-IIIb): 6.00 to 7.22

CC(C)OC(=O)OCOc1c2c(c(N(C)S(C)(=O)=O)c3cccnc13)CN(Cc1ccc(F)cc1)C2=O [Compound 33, (7-(4-fluorobenzyl)-5-(N-methylmethan-5-ylsulfonamido)-8-oxo-7,8-dihydro-6H-pyrrolo[3,4-g]quinolin-9-yloxy)methyl isopropyl carbonate]
pIC50 (HIV integrase): < 6.00 | pEC50 (HIV-IIIb): > 7.22

CN(c1c2c(c(O)c3ncccc13)C(=O)N(Cc1cccc(Cl)c1)C2)S(C)(=O)=O [Compound 175, N-(7-(3-chlorobenzyl)-9-hydroxy-8-oxo-7,8-dihydro-6H-pyrrolo[3,4-g]quinolin-5-yl)-N-methylmethanesulfonamide]
pIC50 (HIV integrase): 6.00 to 7.22 | pEC50 (HIV-IIIb): > 7.22

CN(c1c2c(c(O)c3ncccc13)C(=O)N(Cc1ccc(F)cc1)C2O)S(C)(=O)=O (single isomer, unassigned) [Compound 166, N-(7-(4-fluorobenzyl)-6,9-dihydroxy-8-oxo-7,8-dihydro-6H-pyrrolo[3,4-g]quinolin-5-yl)-N-methylmethanesulfonamide]
pIC50 (HIV integrase): > 7.22 | pEC50 (HIV-IIIb): > 7.22

CCN(c1c2c(c(O)c3ncccc13)C(=O)N(Cc1ccc(F)cc1)C2)S(C)(=O)=O [Compound 78, N-ethyl-N-(7-(4-fluorobenzyl)-9-hydroxy-8-oxo-7,8-dihydro-6H-pyrrolo[3,4]quinolin-5-yl)methanesulfonamide]
pIC50 (HIV integrase): > 7.22 | pEC50 (HIV-IIIb): > 7.22

CN(C)S(=O)(=O)N(C)c1c2c(c(O)c3ncccc13)C(=O)N(Cc1ccc(F)cc1)C2 [Compound 38, N-(7-(4-fluorobenzyl)-9-hydroxy-8-oxo-7,8-dihydro-6H-pyrrolo[3,4-g]quinolin-5-yl)-N,N′,N′-trimethylsulfamide]
pIC50 (HIV integrase): 6.00 to 7.22 | pEC50 (HIV-IIIb): > 7.22

CN(c1c2c(c(O)c3ncccc13)C(=O)N(Cc1ccc(F)cc1)C2)S(=O)(=O)c1ccccn1 [Compound 158, N-(7-(4-fluorobenzyl)-9-hydroxy-8-oxo-7,8-dihydro-6H-pyrrolo[3,4-g]quinolin-5-yl)-N-methylpyridine-2-sulfonamide]
pIC50 (HIV integrase): 6.00 to 7.22 | pEC50 (HIV-IIIb): > 7.22

CN(c1c2c(c(O)c3ncccc13)C(=O)N(Cc1ccc(F)cc1)C2)S(=O)(=O)c1ccc(N2CCOCC2)nc1 [Compound 159, N-(7-(4-fluorobenzyl)-9-hydroxy-8-oxo-7,8-dihydro-6H-pyrrolo[3,4-g]quinolin-5-yl)-N-methyl-6-morpholinopyridine-3-sulfonamide]
pIC50 (HIV integrase): 6.00 to 7.22 | pEC50 (HIV-IIIb): 6.00 to 7.22

CC(C)OC(=O)Oc1c2c(c(N(C)S(C)(=O)=O)c3cccnc13)CN(Cc1ccc(F)cc1)C2=O [Compound 34, 7-(4-fluorobenzyl)-5-(N-methylmethan-5-ylsulfonamido)-8-oxo-7,8-dihydro-6H-pyrrolo[3,4-g]quinolin-9-yl isopropyl carbonate]
pIC50 (HIV integrase): < 6.00 | pEC50 (HIV-IIIb): > 7.22

CN(c1c2c(c(O)c3ncccc13)C(=O)N(Cc1ccc(F)cc1C#N)C2)S(C)(=O)=O [Compound 100, N-(7-(2-cyano-4-fluorobenzyl)-9-hydroxy-8-oxo-7,8-dihydro-6H-pyrrolo[3,4-g]quinolin-5-yl)-N-methylmethanesulfonamide]
pIC50 (HIV integrase): 6.00 to 7.22 | pEC50 (HIV-IIIb): 6.00 to 7.22

CN(C)CCS(=O)(=O)N(C)c1c2c(c(O)c3ncccc13)C(=O)N(Cc1ccc(F)cc1)C2 [Compound 60, N-(7-(4-fluorobenzyl)-9-hydroxy-8-oxo-7,8-dihydro-6H-pyrrolo[3,4-g]quinolin-5-yl)-N-methyl-2-dimethylaminoethane-1-sulfonamide]
pIC50 (HIV integrase): > 7.22 | pEC50 (HIV-IIIb): > 7.22

CN(C)S(=O)(=O)Nc1c2c(c(O)c3ncccc13)C(=O)N(Cc1ccc(F)cc1)C2 [Compound 41, N-(7-(4-fluorobenzyl)-9-hydroxy-8-oxo-7,8-dihydro-6H-pyrrolo[3,4-g]quinolin-5-yl)-N′,N′-dimethylsulfamide]
pIC50 (HIV integrase): 6.00 to 7.22 | pEC50 (HIV-IIIb): > 7.22

CN(c1c2c(c(O)c3ncccc13)C(=O)N(Cc1ccc(F)cc1S(=O)(=O)N(C)C)C2)S(C)(=O)=O [Compound 109, 5-fluoro-2-((9-(hydroxy)-5-(N-methylmethylsulfonamido)-8-oxo-6H-pyrrolo[3,4-g]quinolin-7(8H)-yl)methyl)-N,N-dimethylbenzenesulfonamide]
pIC50 (HIV integrase): 6.00 to 7.22 | pEC50 (HIV-IIIb): > 7.22

CN1CCCN(c2c3c(c(O)c4ncccc24)C(=O)N(Cc2ccc(F)cc2)C3)S1(=O)=O [Compound 218]
pIC50 (HIV integrase): > 7.22 | pEC50 (HIV-IIIb): > 7.22

CN(c1c2c(c(O)c3ncccc13)C(=O)N(Cc1ccc(F)cc1)C2)S(=O)(=O)CCN1CCOCC1 [Compound 163, N-(7-(4-fluorobenzyl)-9-hydroxy-8-oxo-7,8-dihydro-6H-pyrrolo[3,4-g]quinolin-5-yl)-N-methyl-2-morpholinoethanesulfonamide]
pIC50 (HIV integrase): > 7.22 | pEC50 (HIV-IIIb): > 7.22

CC(C)S(=O)(=O)N(C)c1c2c(c(O)c3ncccc13)C(=O)N(Cc1ccc(F)cc1)C2 [Compound 54, N-(7-(4-fluorobenzyl)-9-hydroxy-8-oxo-7,8-dihydro-6H-pyrrolo[3,4-g]quinolin-5-yl)-N-methylpropane-2-sulfonamide]
pIC50 (HIV integrase): 6.00 to 7.22 | pEC50 (HIV-IIIb): > 7.22

COc1cc(F)ccc1CN1Cc2c(c(O)c3ncccc3c2N(C)S(C)(=O)=O)C1=O [Compound 210, N-(7-(4-fluoro-2-methoxybenzyl)-9-hydroxy-8-oxo-7,8-dihydro-6H-pyrrolo[3,4-g]quinolin-5-yl)-N-methylmethanesulfonamide]
pIC50 (HIV integrase): 6.00 to 7.22 | pEC50 (HIV-IIIb): > 7.22

O=C1c2c(c(N3CCCNS3(=O)=O)c3cccnc3c2O)CN1Cc1ccc(F)cc1 [Compound 215]
pIC50 (HIV integrase): 6.00 to 7.22 | pEC50 (HIV-IIIb): > 7.22

CN(c1c2c(c(O)c3ncccc13)C(=O)N(Cc1cc(Cl)cc(Cl)c1)C2)S(C)(=O)=O [Compound 193, N-(7-(3,5-dichlorobenzyl)-9-hydroxy-8-oxo-7,8-dihydro-6H-pyrrolo[3,4-g]quinolin-5-yl)-N-methylmethanesulfonamide]
pIC50 (HIV integrase): 6.00 to 7.22 | pEC50 (HIV-IIIb): > 7.22

CN(c1c2c(c(O)c3ncccc13)C(=O)N(Cc1ccc(F)cc1)C2)S(N)(=O)=O [Compound 132, N-(7-(4-fluorobenzyl)-9-hydroxy-8-oxo-7,8-dihydro-6H-pyrrolo[3,4-g]quinolin-5-yl)-N-methylsulfamide]
pIC50 (HIV integrase): > 7.22 | pEC50 (HIV-IIIb): > 7.22

CCOC(=O)N(C)c1c2c(c(O)c3ncccc13)C(=O)N(Cc1ccc(F)cc1)C2C (stereo not drawn) [Compound 114, ethyl 7-(4-fluorobenzyl)-9-hydroxy-6-methyl-8-oxo-7,8-dihydro-6H-pyrrolo[3,4-g]quinolin-5-yl(methyl)carbamate]
pIC50 (HIV integrase): 6.00 to 7.22 | pEC50 (HIV-IIIb): 6.00 to 7.22

CN(c1c2c(c(O)c3ncccc13)C(=O)N(Cc1ccc(F)cc1N)C2)S(C)(=O)=O [Compound 103, N-(7-(2-amino-4-fluorobenzyl)-9-hydroxy-8-oxo-7,8-dihydro-6H-pyrrolo[3,4-g]quinolin-5-yl)-N-methylmethanesulfonamide]
pIC50 (HIV integrase): > 7.22 | pEC50 (HIV-IIIb): > 7.22

COc1ccc(CN2Cc3c(c(O)c4ncccc4c3N(C)S(C)(=O)=O)C2=O)c(OC)c1 [Compound 143, N-(7-(2,4-dimethoxybenzyl)-9-hydroxy-8-oxo-7,8-dihydro-6H-pyrrolo[3,4-g]quinolin-5-yl)-N-methylmethanesulfonamide]
pIC50 (HIV integrase): 6.00 to 7.22 | pEC50 (HIV-IIIb): 6.00 to 7.22

CN(c1c2c(c(OCOC(=O)OC3CCCC3)c3ncccc13)C(=O)N(Cc1ccc(F)cc1)C2)S(C)(=O)=O [Compound 30, (7-(4-fluorobenzyl)-5-(N-methylmethan-5-ylsulfonamido)-8-oxo-7,8-dihydro-6H-pyrrolo[3,4-g]quinolin-9-yloxy)methyl cyclopentyl carbonate]
pIC50 (HIV integrase): < 6.00 | pEC50 (HIV-IIIb): 6.00 to 7.22

CN(c1c2c(c(O)c3ncccc13)C(=O)N(Cc1ccc(F)cc1)C2=O)S(C)(=O)=O [Compound 152, N-(7-(4-fluorobenzyl)-9-hydroxy-6,8-dioxo-7,8-dihydro-6H-pyrrolo[3,4-g]quinolin-5-yl)-N-methylmethanesulfonamide]
pIC50 (HIV integrase): > 7.22 | pEC50 (HIV-IIIb): < 6.00

CN(c1c2c(c(O)c3ncccc13)C(=O)N(Cc1ccc(F)c(Cl)c1)C2)S(C)(=O)=O [Compound 181, N-(7-(3-chloro-4-fluorobenzyl)-9-hydroxy-8-oxo-7,8-dihydro-6H-pyrrolo[3,4-g]quinolin-5-yl)-N-methylmethanesulfonamide]
pIC50 (HIV integrase): > 7.22 | pEC50 (HIV-IIIb): > 7.22
